Read-outs that look alike come from different tables or passages of the source.
Key:
[1] = Core body temperature measurement; assay type: in vivo, C57BL/6J mice
Method: Core body temperatures were recorded from age-matched male and female C57BL/6J mice prior to treatment (Time 0) and 30 min, 60 min, 120 min, and 300 min post-treatment using a rectal probe thermometer for mice (Thermalert Model TH-8, Physitemp Instruments, Inc., Clifton, NJ). On three days of the week leading up to the study, animals were handled and temperatures were taken to acclimate the animals to the procedure.
SBI-553 treatment was not associated with hypothermia or hypotension. In addition to modulating motivated behavior. […] SBI-553 (at 2-30 mg/kg, i.p.) had no effect on core body temperature (FIG. 6B). […] This was an effect not secondary to hypothermia as body temperature was maintained by thermal support. These findings indicate that a Gq protein-dependent mechanism mediates NTSR1-associated side effects and is not engaged by SBI-553. Consistent with an antagonist like action at NTSR1.

[2] = Whole body plethysmography (respiratory depression); assay type: in vivo, mice
From the text: Third, plethysmography is used to examine whether SBI-553 and IND ready analog SBI-810 can be administered to mice intraperitoneally, intravenously, or intrathecally without respiratory depression. Using plethysmography determine whether SBI-553 and IND ready analog SBI-810 can be administered to mice (e.g., C57BL6J) intraperitonially, intravenously, or intrathecally without respiratory depression. […] The “Buxco FinePointe Whole Body Plethysmography 4-Site System” was used to assess whether any IND analogs like the SBI-810 in the same system following intraperitoneal, intravenous, or intrathecal administration. Here. C57BL6J mice are assessed using UWBP, a technique that provides a, non-invasive, quantitative means to assess and analyze respiratory parameters. This will include tidal volume, minute volume, inspiratory duty cycle, inspiratory flow rate and the ratio of inspiration time to expiration time using a repeated measures approach to determine lung function on the same animal under multiple treatment conditions.

[3] = mouse, in vivo; cited from earlier work
[4] = Pharmacokinetics in mouse; assay type: in vivo
[5] = Plantar incision-induced post-operative pain (mechanical allodynia) in WT and Arrb2 KO mice; assay type: in vivo; details: 12 mg/kg IP
[6] = Pharmacokinetics in monkey (IV and PO); assay type: in vivo; details: for AUC: monkey; for MRT last: read-out: MRT0-last
NTSR2 = target: T1, NTSR2 (Homo sapiens, UniProt O95665); assay: Cellular assay of β-arrestin-2 translocation in cells expressing NTSR2; assay type: cell-based
T1 construct: expressed in transfected cells; host or cells: HEK293 cells
Method: First, using cellular assays, whether IND candidates such as SBI-810 are similar or better than SBI-553 as β-arrestin biased agonist at NTSR1. is assessed. The chemical entities used in this work were synthesized and validated. However, routine validation of the profile of these compounds is performed routinely using both cellular and in vivo assays. For example, HEK293 cells that express either the NTSR1 or NTSR2 are used to assess the functional profile of the various chemical probes. In addition, a series of genetically engineered mouse lines are used to provide an in vivo validation of novel chemical entities for their abilities to module behaviors in these animals.
Fourth, cellular assays are used to establish that IND ready analogs like SBI-810 are still selective for the NTSR1 rather than NTSR2. The specificity of the lead compounds toward NTSR1. NTSR2. and β-arrestin-2 are tested in respective cellular assays. More specifically, cells expressing either NTSR1 or NTSR2 are used to assess the function of various compound. […] This translocation is not observed in cells expressing NTSR2.
Fourth, genetically engineered mice are used to assess the effects and mechanisms of novel ligands. The specificity of the lead compounds toward NTSR1, NTSR2, and β-arrestin-2 dependent signaling is examined. […]

[7] = Cocaine- and methamphetamine-induced hyperlocomotion, open field; assay type: in vivo, mice (C57BL/6J background); details: 12 mg/kg i.p., WT mice
Method: Once stable performance was achieved, self-administration was assessed once daily in 60 min sessions. Animals received vehicle (saline, i.p.) or SBI-553 (2, 6, or 12 mg/kg, i.p.) immediately prior to placement into self-administration chambers with access to cocaine at doses of 0.1, 0.3, 0.5, or 1 mg/kg/infusion. FIG. 7B-FIG. 7C show cocaine-induced and methamphetamine-induced hyperlocomotion.
Open-field testing is used to analyze animal movement. The Accuscan open field (Omnitech Electronics, Inc.) was used to assess locomotor activity as previously described (Toth et al., 2018: Slosky L M, et al. (2020)). Here, animal movement is determined by the breaking of gridded photocell beams.
The effect of SBI-553 on cocaine self-administration was both cocaine-dose dependent and SBI-553-dose dependent. […] In the presence of β-arrestin2, SBI-553 reduced activity in mice. A 12 mg/kg (i.p.) dose of SBI-553 decreased both cocaine-and methamphetamine-induced hyperlocomotion in wild-type (WT) mice on a C57BL/6J background (FIG. 7B-FIG. 7C). […] Conversely, a significant reduction in locomotion was absent in global β-arrestin2 KO mice (Slosky L M, et al. (2020) Cell. 181(6):1364-1379e14).

T1 sequence (O95665 whole entry, species assumed): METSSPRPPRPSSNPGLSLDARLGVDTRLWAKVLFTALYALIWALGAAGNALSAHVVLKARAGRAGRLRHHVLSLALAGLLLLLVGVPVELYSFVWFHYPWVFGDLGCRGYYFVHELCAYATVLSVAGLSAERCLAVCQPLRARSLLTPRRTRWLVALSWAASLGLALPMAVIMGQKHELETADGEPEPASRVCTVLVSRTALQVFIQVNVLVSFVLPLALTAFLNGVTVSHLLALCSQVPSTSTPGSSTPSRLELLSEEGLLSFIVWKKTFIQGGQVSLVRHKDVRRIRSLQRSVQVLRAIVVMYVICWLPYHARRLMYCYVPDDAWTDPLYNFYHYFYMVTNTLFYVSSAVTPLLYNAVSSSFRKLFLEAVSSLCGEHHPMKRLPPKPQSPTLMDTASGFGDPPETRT

Core body temperature ([1]; 2-30 mg/kg, i.p.): no effect | Breathing frequency or tidal volume ([2]; on its own): had no effect | Reduction in breathing frequency or tidal volume produced by morphine ([2]; with morphine): did not exacerbate | CIp ([4]; 5 mpk iv (printed tv)): 44.8 mL/min/kg | Vd ([4]; 5 mpk iv (printed tv)): 6.16 L/kg | Cmax ([4]; 30 mpk po (pa [sic])): 1460 ng/mL | T2/2 ([4]; 30 mpk po (pa [sic])): 5.28 h | Kp at 1 h ([4]; brain, 30 mg/kg, 30 mpk po (pa [sic]), 1 h, read-out: brain:plasma @ 1 h): 54 | bioavailability ([4]; plasma, 30 mg/kg, 5 mpk iv and 30 mpk po): 45% | AUC ([4]; route not marked): 4824 ng·h/mL | Co ([6]; Monkey, IV 5 mg/kg): 4572 ng/mL | T2/2 ([6]; Monkey, IV 5 mg/kg): 4.78 h | CI ([6]; Monkey, PO 20 mg/kg): 8 mL/min/kg | Co ([6]; Monkey, PO 20 mg/kg): 67.6 ng/mL | Levels in plasma ([6]; following i.v. and p.o. dosing): good levels in plasma | AUC ([6]; plasma, iv, 5 mg/kg, Monkey, IV 5 mg/kg, read-out: AUCo-inf): 4340 ng·h/mL | AUC ([6]; plasma, iv, 5 mg/kg, Monkey, IV 5 mg/kg, read-out: AUCo-last): 4280 ng·h/mL | AUC ([6]; plasma, po, 20 mg/kg, Monkey, PO 20 mg/kg, read-out: AUCo-inf): 864 ng·h/mL | AUC ([6]; plasma, po, 20 mg/kg, Monkey, PO 20 mg/kg, read-out: AUCo-last): 797 ng·h/mL | clearance ([6]; plasma, Monkey, IV 5 mg/kg): 19.2 mL/min/kg | MRT last ([6]; plasma, Monkey, IV 5 mg/kg): 2.3 h | Vd ([6]; plasma, Monkey, IV 5 mg/kg, read-out: Vdss): 3.1 L/kg | half-life ([6]; plasma, Monkey, PO 20 mg/kg): 8 h | MRT last ([6]; plasma, Monkey, PO 20 mg/kg): 11.9 h | Translocation of β-arrestin-2 to intracellular compartments (NTSR2): not observed
Compound: COc1ccccc1C1CCN(c2nc(C3(F)CC3)nc3ccc(N(C)CCO)cc23)CC1 [SBI-553]
Reversal of PD149163-associated decrease in body temperature ([1]; pretreatment p.o. 30 min prior to PD149163 (i.p.)): dose-dependently reversed | Methamphetamine conditioned place preference [3]: reduced | Duration of analgesic effect [5]: more than 4.5 hr | Time after injection at which analgesic effect was observed [5]: 2 h | Plantar incision-induced mechanical allodynia ([5]; Arrb2 KO mice): not | Plantar incision-induced mechanical allodynia ([5]; WT mice): significantly reduced | Cocaine-induced hyperlocomotion ([7]; cocaine 30 mg/kg i.p.): decreased | Methamphetamine-induced hyperlocomotion ([7]; methamphetamine 2 mg/kg i.p.): decreased
